How the values were obtained:
[1] = target: T1, 5-HT transport protein (SERT) (Rattus norvegicus, UniProt P31652); assay: Screening: competitive binding test to SERT using [3H]-citalopram; conditions: [3H]-citalopram 1 nM; for inhibition at 10 µM / inhibition at 0.1 µM: read-out: Inhibition percent (I %), competitive binding to 5-HT transport protein (SERT)
T1 construct: Preparation of Membrane Proteins in Rat Hippocampi; from tissue; host or cells: Wistar rat hippocampus
Experimental: The homogenate was centrifuged under 1000×g for 10 minutes and the supernatant was then centrifuged under 39000×g for 10 minutes. The precipitate was collected, and resuspended with 10 times volume of Tris-HCl buffer solution (pH 7.4) relative to the original weight, then centrifuged under 39000×g for 10 minutes. The precipitate was washed with the same buffer solution, centrifuged under 39000×g for 10 minutes and the precipitate was suspended with the above buffer solution. After sub-packaged (the whole operation procedures were performed under ice bath), the product was stored at −80° C. The protein concentration was measured by Lowrry method.

5-HT1A receptor = target: T2, 5-HT1A receptor (Rattus norvegicus, UniProt P19327); assay: Screening: competitive binding test to 5-HT1A receptor using [3H]-8-OH-DPAT, rat hippocampi membrane protein; conditions: [3H]-8-OH-DPAT 1.28 nM; for inhibition at 10 µM / inhibition at 0.1 µM: read-out: Inhibition percent (I %), competitive binding to 5-HT1A receptor
T2 construct: the content of 5-HT1A receptor extracted from rat hippocampi was 5.5 mg/ml; from tissue; host or cells: Wistar rat hippocampus, membrane preparation
T2 sequence (P19327 1-422): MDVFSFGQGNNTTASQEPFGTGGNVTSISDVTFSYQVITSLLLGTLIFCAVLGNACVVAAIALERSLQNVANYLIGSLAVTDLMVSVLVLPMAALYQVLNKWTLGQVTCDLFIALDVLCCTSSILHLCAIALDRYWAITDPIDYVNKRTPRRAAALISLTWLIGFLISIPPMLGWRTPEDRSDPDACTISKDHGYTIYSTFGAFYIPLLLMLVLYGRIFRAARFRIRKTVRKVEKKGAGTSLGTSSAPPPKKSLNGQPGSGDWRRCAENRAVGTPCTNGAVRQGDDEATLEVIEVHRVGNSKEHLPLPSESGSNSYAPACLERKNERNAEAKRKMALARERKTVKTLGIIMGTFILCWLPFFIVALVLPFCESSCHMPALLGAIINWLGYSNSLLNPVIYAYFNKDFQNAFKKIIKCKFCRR
Experimental: 1.4.1 Screening of YL Series Compounds
(1) Preparation of Membrane Proteins in Rat Hippocampi
Wister rats, 220-260 g, female and male, were sacrificed by decapitation and hippocampis were rapidly separated, weighed and to which homogenized in 10 times volume of Tris-HCl buffer solution (50 mM Tris-HCl, 5 mM MgCl2,1 mM EDTA, 0.5% (WN) BSA, 1 mM PMSF, 3 μg/ml proteinase inhibitor, 0.1% NaN3, 0.32M sucrose, pH 7.4) at 15,000 rpm for 30 s, total 5 times. The homogenate was centrifuged under 1000×g for 10 minutes and the supernatant was then centrifuged under 39000×g for 10 minutes. The precipitate was collected, and resuspended with 10 times volume of Tris-HCl buffer solution (pH 7.4) relative to the original weight, then centrifuged under 39000×g for 10 minutes. The precipitate was washed with the same buffer solution, centrifuged under 39000×g for 10 minutes and the precipitate was suspended with the above buffer solution. After sub-packaged (the whole operation procedures were performed under ice bath), the product was stored at −80° C. The protein concentration was measured by Lowrry method.
1) In the 5-HT1A receptor binding test, tubes are firstly placed under reaction condition of 25° C.
2) To all of the tubes, the receptor proteins extracted from rat hippocampi in an amount of 100 μg were added in sequence.
4) To the test tubes, 30 μl of the compound in corresponding concentrations (used for screening: 10^−5, 10^−7, 10^−9M) was added in sequence.
6) Tris-HCl buffer solution (50 mM Tris-HCl, 1 mM EDTA, 5 mM MgCl2, 0.1 mM PMSF, 0.1% NaN3, pH 7.4) was supplied to all of the tubes to reach a volume of 300 μl.
7) The reaction was performed at 25° C. for 1 h.
8) Then samples were applied to 49-type glass fibre filter, vacuum suction filtered, then washed three times with 2 ml ice-cold Tris-HCl buffer solution (50 mM Tris-HCl buffer solution, 1 mM EDTA, 5 mM MgCl2, 1 mM PMSF, 0.1% NaN3, 3 μg/ml proteinase inhibitor, pH 7.4). […] The radio-activity was measured by a scintillation counter.

mice [2] = assay: Hole board test in mice; type: in vivo; conditions: 10 mg/kg p.o., long-term (23 days)
Experimental: Hole board test, an animal model of anxiety established by Boissie, et al (1962), was performed in mice.
1) Experimental device: a transparent Perspex box (40×40×27 cm) which had four holes (3 cm in diameter, 1.8 cm in depth) in the floor. The distance of each hole center to its closest wall is 10 cm.
2) Experimental method: Male Kunming mice weighing 20-25 g. The mice were intragastrically administered with YL-0911 or vehicle (distilled water). After 23 days, the mice were placed at center of the hole board with their backs facing to the observer. A head dip was scored if the animal's head dipped into the hole at least up to eye level The latency to the first head-dip, the number of head-dips and the time spent in head-dipping were recorded for 5 min.

mice [3] = assay: Tail suspension test in mice; type: in vivo; conditions: 30 mg/kg p.o., acute, 1 h before test
Excerpt: 2.1.2 Tail Suspension Test in Mice
Tail suspension test in mice is an acute behavioral despair model established by Stem, et al. (1985).
1) Experimental device: an experimental frame with spacing boards which dividing the experimental frame into 2 experimental chambers (20×25×30 cm). A clamp is mounted on a through cross rod in the chamber for clamping mice tail so as to suspend the mice.
2) Experimental method: Male Kunming mice weighing 20-25 g. The mice were intragastrically administered with YL-0911 or vehicle (distilled water). After 1 h, wrap adhesive tape around the mouse's tail in position three quarters of the distance from the base of the tail and then suspend the animals by passing the suspension hook through the adhesive tape 5 cm above the table. The duration of immobility in the last 4 min of total 6 min test was recorded.

mice [4] = assay: Forced swim test in mice; type: in vivo; conditions: 40 mg/kg p.o., acute, 1 h before test
Experimental: 2.1.1 Forced Swim Test in Mice
Forced swim test in mice is an acute behavioral despair model established by Porsolt, et al.
(1) Experimental device: a glass cylinder (diameter 13 cm, height 24 cm, containing 10 cm of water maintained at 25).
(2) Experimental method: Male Kunming mice weighing 20-25 g. The mice were gently put in the water 1 h after intragastrically drug administration, and then the duration of immobility in the last 4 min of total 6 min test was recorded.

T1 sequence (P31652 whole entry): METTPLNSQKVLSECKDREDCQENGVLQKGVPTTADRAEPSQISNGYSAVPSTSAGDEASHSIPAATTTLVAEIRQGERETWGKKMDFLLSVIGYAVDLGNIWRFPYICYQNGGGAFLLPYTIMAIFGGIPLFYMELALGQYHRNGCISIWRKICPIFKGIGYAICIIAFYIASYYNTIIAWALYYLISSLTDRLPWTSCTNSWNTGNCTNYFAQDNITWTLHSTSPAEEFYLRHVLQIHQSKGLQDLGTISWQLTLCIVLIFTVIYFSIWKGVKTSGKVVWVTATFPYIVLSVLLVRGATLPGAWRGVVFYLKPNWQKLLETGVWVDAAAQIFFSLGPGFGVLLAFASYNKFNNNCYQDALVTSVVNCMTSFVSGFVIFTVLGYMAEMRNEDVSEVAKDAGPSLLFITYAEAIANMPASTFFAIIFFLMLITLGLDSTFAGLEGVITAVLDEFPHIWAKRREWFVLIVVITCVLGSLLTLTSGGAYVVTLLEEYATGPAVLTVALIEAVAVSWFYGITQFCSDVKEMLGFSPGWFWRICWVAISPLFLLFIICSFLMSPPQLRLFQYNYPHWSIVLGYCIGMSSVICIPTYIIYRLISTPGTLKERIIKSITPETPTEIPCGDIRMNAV

Structure (SMILES)	inhibition at 10 µM (5-HT1A receptor; compound 10^-5 mol/L) [%]	inhibition at 0.1 µM (5-HT1A receptor; compound 10^-7 mol/L) [%]	Inhibition percent (I %), competitive binding to 5-HT1A receptor (5-HT1A receptor; compound 10^-5 mol/L) [%]	Inhibition percent (I %), competitive binding to 5-HT1A receptor (5-HT1A receptor; compound 10^-7 mol/L) [%]	further results
O=c1ccccn1CC1(O)CCN(Cc2ccccc2F)CC1 [Compound 2, 1-{[1-(2-fluorobenzyl)-4-hydroxypiperidin-4-yl]-methyl}-pyridin-2(1H)-one]	100	58	–	–	inhibition at 10 µM ([1]; compound 10^-5 mol/L): 100%; inhibition at 0.1 µM ([1]; compound 10^-7 mol/L): 50%
O=c1ccccn1CC1(O)CCN(Cc2ccc(F)cc2)CC1 [Compound 3, 1-{[1-(4-fluorobenzyl)-4-hydroxypiperidin-4-yl]-methyl}-pyridin-2(1H)-one]	100	10	–	–	–
O=c1ccccn1CC1(O)CCN(Cc2ccc(F)cc2F)CC1 [Compound 4, 1-{[1-(2,4-difluorobenzyl)-4-hydroxypiperidin-4-yl]-methyl}-pyridin-2(1H)-p-one]	–	–	100	57	Inhibition percent (I %), competitive binding to 5-HT transport protein (SERT) ([1]; compound 10^-5 mol/L): 100%; Inhibition percent (I %), competitive binding to 5-HT transport protein (SERT) ([1]; compound 10^-7 mol/L): 58%
O=c1ccc(Br)cn1CC1(O)CCN(Cc2ccccc2)CC1 [Compound 5, 5-bromo-1-[(1-benzyl-4-hydroxypiperidin-4-yl)-methyl]-pyridin-2(1H)-one]	94	62	–	–	inhibition at 10 µM ([1]; compound 10^-5 mol/L): 100%; inhibition at 0.1 µM ([1]; compound 10^-7 mol/L): 77%
O=c1ccc(Br)cn1CC1(O)CCN(Cc2ccccc2F)CC1 [Compound 6, 5-bromo-1-{[1-(2-fluorobenzyl)-4-hydroxypiperidin-4-yl]-methyl}-pyridin-2(1H)-one]	100	74	–	–	inhibition at 10 µM ([1]; compound 10^-5 mol/L): 87%; inhibition at 0.1 µM ([1]; compound 10^-7 mol/L): 44%
O=c1ccc(Br)cn1CC1(O)CCN(Cc2ccc(F)cc2)CC1 [Compound 7, 5-bromo-1-{[1-(4-fluorobenzyl)-4-hydroxypiperidin-4-yl]-methyl}-pyridin-2(M)-one]	–	–	59	2	–
O=c1ccc(Br)cn1CC1(O)CCN(Cc2ccc(F)cc2F)CC1 [Compound 8, 5-bromo-1-{[1-(2,4-fluorobenzyl)-4-hydroxypiperidin-4-yl]-methyl}-pyridin-2(M)-one]	–	–	42	19	–
Cc1ccn(CC2(O)CCN(Cc3ccccc3)CC2)c(=O)c1 [Compound 9, 1-[(1-benzyl-4-hydroxypiperidin-4-yl)-methyl]-4-methylpyridin-2(M)-one]	–	–	100	25	–
Cc1ccn(CC2(O)CCN(Cc3ccccc3F)CC2)c(=O)c1 [Compound 10, 1-{[1-(2-fluorobenzyl)-4-hydroxypiperidin-4-yl]-methyl}-4-methylpyridin-2(M)-one]	–	–	76	37	–
Cc1ccn(CC2(O)CCN(Cc3ccc(F)cc3)CC2)c(=O)c1 [Compound 11, 1-{[1-(4-fluorobenzyl)-4-hydroxypiperidin-4-yl]-methyl}-4-methylpyridin-2(M)-one]	–	–	57	14	–
Cc1ccn(CC2(O)CCN(Cc3ccc(F)cc3F)CC2)c(=O)c1 [Compound 12, 1-{[1-(2,4-difluorobenzyl)-4-hydroxypiperidin-4-yl]-methyl}-4-methylpyridin-2(M)-one]	–	–	61	30	–
CNCCC(Oc1ccc(C(F)(F)F)cc1)c1ccccc1 (centres unmarked) [Fluoxetine, fluoxetine, reference compound]	–	–	–	–	the latency to the first head-dip (mice [2]): 42.70 ± 9.43 s; Number of Head dips (mice [2]; 5 min): 9.60 ± 1.49; Time of head dipping (mice [2]; 5 min): 6.31 ± 1.03 s; Immobility time (s), tail suspension test (mice [3]): 56.2 ± 41.7 s
CN(C)CCCN1c2ccccc2CCc2ccccc21 [Imipramine, reference compound]	–	–	–	–	Immobility time (s), forced swim test (mice [4]): 88.0 ± 58.2 s

Reference: patent publication US8921563B2, “1-[(4-hydroxypiperidin-4-yl)methyl]pyridin-2(1H)-one derivatives, preparation methods and uses thereof” (Institue of Pharmacology and Toxicology Academy of Military …, priority 2010, dated 2014)
